# Non-standard residues stand in square brackets, D forms with d. Residues, ends and D or L forms follow the SMILES beside them. *: point of attachment. Asu = N[C@@H](CCCCCC(=O)O)C(=O)O; NHOH = ON*
# System: histone-deacetylase
# Test: Histone acetylation in cells treated with CHAP31 (Western blotting)
# Assay type: cell-based
# Settings: 1 μM, 24 hours, detected with Clone-1 antibody
# Protocol: Five types of cells, B16/BL6, MOLT-4F, HeLa-S3, COS-1, and COS-7 were treated with, 1 μM of histone-deacetylase inhibitor, CHAP31, for 24 hours, and then cell lysates were prepared and developed on an electrophoresis, followed by detecting acetylated proteins using the above four antibodies as primary antibodies. In FIGS. 2, A, B, C, and D indicate the results of the detections using Clone-1, Clone-2, Clone-3, and Clone-4, respectively. The concentration of the primary antibodies used for the Western blotting were 107 ng/ml, 65.7 ng/ml, 258 ng/ml, and 158 ng/ml, respectively, and each of these concentration provide the same reactivity (A492=1) in ELISA where acetylated bovine serum albumin was immobilized. The total cell lysates were prepared from the cells (+) after subjecting each cell in the 1 μM CHAP31 treatment for 24 hours or the cells (−) without the treatment. In each lane, 20 μg of protein was loaded. Five types of cells being used were 1: B16/BL6, 2: MOLT-4F, 3: HeLa-S3, 4: COS-1, and 5: COS-7, respectively.
structure (smiles),measurement,value
CC[C@H](C)[C@@H]1NC(=O)[C@@H](Cc2ccc(OC)cc2)NC(=O)[C@H](CCCCCC(=O)NO)NC(=O)[C@H]2CCCN2C1=O [CHAP31] (cyclo([Asu](NHOH)[dY](Me)I[dP])),acetylation of histone,increased
